# Assay results published in the SangsterLogP compilation.
# Peptide text beside a SMILES is read from it. * marks the point of attachment. NHtBu = CC(C)(C)N*
# Key:
# [1] = method code SF-AS, from DOI: 10.1021/jm00395a009, PMID: 3681892; conditions: pH 7.4
# [2] = not given; remark: listed apart in the source
# [3] = not given; remark: listed apart in the source
# [4] = not given; remark: listed apart in the source
# [5] = method code SF-HPLC, from Yu, G.; Xu, X. (1993). Determination of the 1-octanol/water partition coefficient of nitro-PAHs. Huanjing Huaxue, 12(4)299-303.
# [6] = method code SF, from DOI: 10.1021/jm200015a, PMID: 21630666; conditions: pH 7.4
# [7] = method code SF-HPLC, from DOI: 10.1002/jps.10072, PMID: 11920751; conditions: pH 7.4
# [8] = method code SF-HPLC, from DOI: 10.1016/0378-5173(88)90064-6; conditions: pH 7.4
# [9] = method code SF-HPLC, from DOI: 10.1023/a:1018903407592, PMID: 8165182; conditions: pH 7.4
# [10] = not given; remark: listed apart in the source
# [11] = not given; remark: listed apart in the source
# [12] = not given; remark: listed apart in the source
# [13] = not given; remark: listed apart in the source
# [14] = method code SF, from DOI: 10.1016/0378-5173(90)90261-2; conditions: pH 3.0
# [15] = not given; remark: listed apart in the source
# [16] = not given; remark: listed apart in the source
# [17] = method code SF, from DOI: 10.1248/cpb.39.1346, PMID: 1914012
# [18] = method code SF-AS, from Falk, M.; Luecke, L. (1989). Transport of substances through lipid membranes. 11. Effect of esterification on the dissociation and permeation of orotic acid. Pharmazie, 44(9)647.; conditions: pH 1.2
# [19] = method code SF-AS, from DOI: 10.1021/jf60220a002
# [20] = not given; remark: listed apart in the source
# [21] = not given; remark: listed apart in the source
# [22] = method code SF-AS, from DOI: 10.1016/0378-5173(86)90115-8
# [23] = not given; remark: listed apart in the source
# [24] = method code SF-AS, from DOI: 10.1016/0223-5234(94)90063-9; conditions: pH 2.0
# [25] = not given; remark: listed apart in the source
# [26] = method code SF-RC, from DOI: 10.1023/a:1015892313856, PMID: 1495896
structure (smiles),measurement,setting,value
COC1OC(n2ccc(=O)[nH]c2=O)C(OC)C1OC (stereo not given),logD,[1],-0.3
COc1ccc(C(c2ccc(OC)cc2)C(Cl)Cl)cc1,logP,,3.78
Clc1cc2oc3cc(Cl)c(Cl)c(Cl)c3c2c(Cl)c1Cl,logP,[2],7.57
Cc1ccccc1NS(=O)(=O)c1c(O)c(Cl)cc(Cl)c1Cl,logP,[3],4.02
Cc1cn(C2CC(N=[N+]=[N-])C(COC(=O)c3ccncc3)O2)c(=O)[nH]c1=O (stereo not given),logP,[4],0.8
O=[N+]([O-])c1ccc2ccc3cccc4ccc1c2c34,logP,[5],5.06
O=S(=O)(Nc1ccc(Cl)cc1)c1cc(Cl)cc(Cl)c1O,logP,[3],3.66
O=c1c2c([nH]c3ccc(Br)cc13)CCSC2,logD,[6],0.9
CCC(=O)OCC(CO)OCn1cnc2c(=O)[nH]c(N)nc21 (stereo not given),logD,[7],-0.92
CC(=O)c1ccc2cc(C(C)C(=O)OCC(=O)N(C)CCO)ccc2c1 (stereo not given),logD,[8],2.01
CCCCC(=O)OCCOCn1cnc2c(=O)[nH]c(N)nc21,logD,[9],0.37
O=C(O)c1ccccc1Nc1cccc(O)c1,logP,[10],3.43
CC1=C(C)C(O)N(c2ccc(C(F)(F)F)c(Cl)c2)C1=O (stereo not given),logP,[11],3.53
Fc1ccc(-c2ccc(-c3ccc(F)cc3)o2)cc1,logP,,5.11
CC(C)C(C(=O)O)c1ccc(Cl)cc1 (stereo not given),logP,[12],3.38
Brc1cc(Br)c(-c2cc(Br)ccc2Br)c(Br)c1,logP,[13],6.89
O=C1CCCCCCCCCCC1,logP,,4.1
CC(=O)c1ccc2cc(C(C)C(=O)OCC(=O)N(C)C)ccc2c1 (stereo not given),logD,[8],2.05
Clc1cc(Cl)c2oc3c(Cl)c(Cl)c(Cl)c(Cl)c3c2c1,logP,[2],7.58
CN(CCO)C(=O)COC(=O)c1ccccc1O,logD,[8],0.86
O=C(O)CCCCCCCc1ccccc1,logD,[14],4.09
CCCN(CCCl)c1c([N+](=O)[O-])cc(C(F)(F)F)cc1[N+](=O)[O-],logP,[15],4.63
CC(=O)c1cccc(Nc2ccccc2C(=O)O)c1,logP,[10],4.07
CC12CCC(c3c1ssc3=S)C2(C)C (stereo not given),logP,[16],3.7
Brc1c(Br)c(Br)c(Oc2c(Br)c(Br)c(Br)c(Br)c2Br)c(Br)c1Br,logP,[13],9.56
CC1(C)[C@@H](O[C@H]2O[C@H](C(=O)O)[C@@H](O)[C@H](O)[C@H]2O[C@@H]2O[C@H](C(=O)O)[C@@H](O)[C@H](O)[C@H]2O)CC[C@@]2(C)[C@@H]3C(=O)C=C4[C@H]5C[C@@](C)(C(=O)O)CC[C@@]5(C)CC[C@@]4(C)C3(C)CC[C@@H]12 (stereo not given in full),logP,[17],2.8
O=c1ccn(C2OC(CO)C(O)C2O)c(=O)n1Cc1ccccc1 (stereo not given),logD,[1],0.33
CCCCCCCCCOC(=O)c1cc(=O)[nH]c(=O)[nH]1,logD,[18],2.41
COC(=O)C(C)Oc1ccc(Oc2ncc(C(F)(F)F)cc2Cl)cc1 (stereo not given),logP,[15],4.07
CCNP(=O)(OCC)O/N=C(/C#N)c1ccc(OC)cc1 (stereo not given),logP,[19],2.39
Brc1ccc(-c2cc(Br)ccc2Br)c(Br)c1,logP,[13],6.49
COc1ccc(C(C(=O)O)C(C)C)cc1 (stereo not given),logP,[12],2.5
CC(=O)OC[C@H]1O[C@@H](n2cc(C)c(=O)[nH]c2=O)C[C@@H]1N=[N+]=[N-],logP,[4],0.45
Clc1cc2c(c(Cl)c1Cl)Oc1cc(Cl)c(Cl)c(Cl)c1O2,logP,[20],7.8
O=[N+]([O-])c1c2ccccc2cc2ccccc12,logP,[5],4.21
O=[N+]([O-])c1cccc(-c2ccccc2)c1,logP,[5],3.69
COc1cccc(Nc2ccccc2C(=O)O)c1,logP,[10],4.31
Cc1cc(I)cc(CN(C)CCCN(C)C)c1O,logP,[21],2.2
CCCCC(=O)N(C)c1ccc(S(=O)(=O)N(C)C)cc1,logP,[22],1.63
CCCCCCC1(c2ccncc2)CCC(=O)NC1=O (stereo not given),logP,[23],2.85
O=c1c2c([nH]c3cc(-c4ccc(-c5ccc(OC(F)(F)F)cc5)cc4)ccc13)CCCC2,logD,[6],3.8
O=C(O)c1cc(Oc2ccc(C(F)(F)F)cc2Cl)ccc1[N+](=O)[O-],logP,[15],4.26
CN(C(=O)CCC#N)c1ccc(S(=O)(=O)N(C)C)cc1,logP,[22],-0.17
CCCCCC(=O)OCCOCn1cnc2c(=O)[nH]c(N)nc21,logD,[9],0.93
Cn1c(CC(=O)O)cnc1C(=O)c1ccc(Cl)cc1,logD,[24],1.17
CSCCC(NC(C)=O)C(=O)Nc1nnc(-c2cccc(Cl)c2Cl)c(N)n1 (stereo not given),logP,[25],1.92
CCCC(=O)OCCOCn1cnc2c(=O)[nH]c(N)nc21,logD,[9],-0.08
O=[N+]([O-])c1cccc(O[C@@H]2O[C@H](CO)[C@@H](O)[C@H](O)[C@H]2O)c1,logP,[17],-0.46
CC(=O)NCC(=O)Nc1nnc(-c2cccc(Cl)c2Cl)c(N)n1,logP,[25],1.1
CC(C)NC(C)Cc1ccc(I)cc1 (stereo not given),logP,[21],1.6
CC1=C(C)C(O)N(c2cccc(N)c2)C1=O (stereo not given),logP,[11],0.51
Clc1cc(Cl)c2oc3c(Cl)cc(Cl)c(Cl)c3c2c1Cl,logP,[2],7.65
O=C(O)CCCCCc1ccccc1,logD,[14],3.27
CC1=C(C)C(O)N(c2ccc(C(F)(F)F)cc2)C1=O (stereo not given),logP,[11],3.13
CC(C)C(C(=O)O)c1ccc(OC(F)F)cc1 (stereo not given),logP,[12],3.03
O=S(=O)(Nc1ccccc1)c1c(O)c(Cl)cc(Cl)c1Cl,logP,[3],3.74
Cn1c(CC(=O)O)cnc1C(=O)c1ccc([N+](=O)[O-])cc1,logD,[24],0.86
S=c1ssc2c1CCCCCCCCCCCCC2,logP,[16],7.18
CC(=O)N[C@@H](C)C(=O)NCC(=O)NC(C)(C)C,logD,[26]; pH 7.2,-0.6
CCCCCCCOC(=O)c1cc(=O)[nH]c(=O)[nH]1,logD,[18],2.15
Clc1cc2c(oc3cc(Cl)c(Cl)c(Cl)c32)c(Cl)c1Cl,logP,[20],6.6
CC(=O)NC(CCC(=O)O)C(=O)Nc1nnc(-c2cccc(Cl)c2Cl)c(N)n1 (stereo not given),logP,[25],1.6
Clc1cc2oc3c(Cl)c(Cl)c(Cl)c(Cl)c3c2cc1Cl,logP,[20],6.6
S=c1ssc(-c2ccccc2)c1-c1ccccc1,logP,[16],4.2
O=C(O)CCCCCCc1ccccc1,logD,[14],3.63
CC(=O)NC(C)C(=O)NC(CC(=O)O)C(=O)NC(C)(C)C (stereo not drawn) (Ac-Ala-Asp-NHtBu; configuration not given here),logD,[26]; pH 2.0,-0.74
CC1(c2ccncc2)CCC(=O)NC1=O (stereo not given),logP,[23],0.07
CC(=O)OCC1OC(n2ccc(N)nc2=O)C(O)C1O (stereo not given),logP,[4],-1.25
CCOP(=O)(NC)O/N=C(/C#N)c1ccc(Cl)cc1 (stereo not given),logP,[19],2.5
CC(=O)OCC1OC(n2ccc(=O)n(Cc3ccccc3)c2=O)C(OC(C)=O)C1OC(C)=O (stereo not given),logD,[1],1.51
CC1(C(=O)O)CCC2(C)CCC3(C)C(=CC(=O)C4C5(C)CCC(O)C(C)(C)C5CCC43C)C2C1 (stereo not given),logP,[17],4.77
CC(=O)OCC(CO)OCn1cnc2c(=O)[nH]c(N)nc21 (stereo not given),logD,[7],-1.08
COc1ccc(C(=O)c2ncc(CC(=O)O)n2C)cc1,logD,[24],0.11
CCNP(=O)(OCC)ON=C(C#N)c1ccc([N+](=O)[O-])cc1 (stereo not given),logP,[19],1.76
O=C(CCCN1CCC(O)(c2ccc(I)cc2)CC1)c1ccc(F)cc1,logP,[21],2.6
CC(=O)NC(C)C(=O)NC(CCC(N)=O)C(=O)NC(C)C(=O)NC(C)(C)C (stereo not drawn) (Ac-Ala-Gln-Ala-NHtBu; configuration not given here),logD,[26]; pH 2.0,-0.67
CCCCCCCCOC(=O)c1cc(=O)[nH]c(=O)[nH]1,logD,[18],2.6
Cc1cc(-c2ccc(OC(F)(F)F)cc2)ccc1-c1ccc2[nH]c3c(c(=O)c2c1)CSCC3,logD,[6],3.6
CN(C(=O)CCO)c1ccc(S(=O)(=O)N(C)C)cc1,logP,[22],-0.26
CCCCC(=O)OCC(CO)OCn1cnc2c(=O)[nH]c(N)nc21 (stereo not given),logD,[7],-0.07
